Reference: patent US8163766B2, “Beta-secretase modulators and methods of use” (Amgen Inc., priority 2005, dated 2012)

tested on: Aβ 40 in conditioned media of cells stably expressing Amyloid Precursor Protein (APP); assay: BACE Cell-Based Assay (Aβ40 in conditioned medium, sandwich ELISA); details: 24 hours of incubation with the test compounds, Aβ 40 by sandwich ELISA, read-out: IC50 values in the cell-based assay (inhibition of Aβ 40)
How it was run: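 IC50 derived from Aβ40 reduction in supernatants, quantified by europium time-resolved fluorescence ELISA with pAb40/biotin-6E10 antibodies incubated at 4°C. Cells stably expressing APP received compound for 24 h, ten concentrations from 100 μM or 10 μM top, final DMSO 0.1%.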

| SMILES | IC50 |
| --- | --- |
| CC1(C)Cc2ccc(O[C@H]3CCOC3)cc2[C@@H](NC[C@@H](O)[C@H](Cc2ccccc2)NC(=O)c2ccc(=O)n(C3CCCC3)c2)C1 [Example 518, 1-cyclopentyl-N-((1S,2R)-3-(((1S)-3,3-dimethyl-7-((3S)-tetrahydro-3-furanyloxy)-1,2,3,4-tetrahydro-1-naphthalenyl)amino)-2-hydroxy-1-(phenylmethyl)propyl)-6-oxo-1,6-dihydro-3-pyridinecarboxamide] | ≤ 5 µM |
| CC1(C)Cc2ccc(O[C@H]3CCOC3)cc2[C@@H](NC[C@@H](O)[C@H](Cc2ccccc2)NC(=O)c2cc(-c3ccccn3)c(=O)n(C3CCCC3)c2)C1 [Example 519, 1′-cyclopentyl-N-((1S,2R)-3-(((1S)-3,3-dimethyl-7-((3S)-tetrahydro-3-furanyloxy)-1,2,3,4-tetrahydro-1-naphthalenyl)amino)-2-hydroxy-1-(phenylmethyl)propyl)-2′-oxo-1′,2′-dihydro-2,3′-bipyridine-5′-carboxamide] | ≤ 5 µM |
| CCc1ccc2c(c1)[C@@H](NC[C@@H](O)[C@H](Cc1ccccc1)NC(=O)[C@@H]1CN(C(=O)N3CCO[C@@H](C)C3)CCO1)CC1(CCC1)O2 [Example 521, (2S)-N-((1S,2R)-3-(((4S)-6-ethyl-3,4-dihydrospiro[chromene-2,1′-cyclobutan]-4-yl)amino)-2-hydroxy-1-(phenylmethyl)propyl)-4-(((2S)-2-methyl-4-morpholinyl)carbonyl)-2-morpholinecarboxamide] | ≤ 5 µM |
| CC(C)(C)Cc1cnc2c(c1)[C@@H](NC[C@@H](O)[C@H](Cc1ccccc1)NC(=O)c1cc(C3CCCCO3)c(=O)n(C3CCCC3)c1)CC1(CCC1)O2 (stereo partly drawn) [Example 522, 1-cyclopentyl-N-((1S,2R)-3-(((4′S)-6′-(2,2-dimethyl-propyl)-3′,4′-dihydrospiro[cyclobutane-1,2′-pyrano[2,3-b]pyridin]-4′-yl)amino)-2-hydroxy-1-(phenyl-methyl)propyl)-6-oxo-5-(tetrahydro-2H-pyran-2-yl)-1,6-dihydro-3-pyridinecarboxamide] | ≤ 5 µM |
| CCc1cc2c(s1)CC(C)(C)C[C@@H]2NC[C@@H](O)[C@H](Cc1ccccc1)NC(=O)[C@H]1CC(=O)N(C2CCC2)C1 [Example 523, (3S)-1-cyclobutyl-N-((1S,2R)-3-(((4S)-2-ethyl-6,6-dimethyl-4,5,6,7-tetrahydro-1-benzothien-4-yl)amino)-2-hydroxy-1-(phenylmethyl)propyl)-5-oxo-3-pyrrolidinecarboxamide] | ≤ 5 µM |
| O=C(N[C@@H](Cc1ccccc1)[C@H](O)CN[C@H]1CC2(CCC2)Oc2ccc(N3CCOCC3)cc21)[C@H]1CC(=O)N(C2CCC2)C1 [Example 524, (3S)-1-cyclobutyl-N-((1S,2R)-2-hydroxy-3-(((4S)-6-(4-morpholinyl)-3,4-dihydrospiro[chromene-2,1′-cyclobutan]-4-yl)amino)-1-(phenylmethyl)propyl)-5-oxo-3-pyrrolidinecarboxamide] | ≤ 5 µM |
| CCc1ccc2c(c1)[C@@H](NC[C@@H](O)[C@H](Cc1cscn1)NC(=O)c1cc(-c3ccccn3)c(=O)n(C3CCCC3)c1)CC1(CCC1)O2 [Example 525, 1′-cyclopentyl-N-((1S,2R)-3-(((4S)-6-ethyl-3,4-dihydrospiro[chromene-2,1′-cyclobutan]-4-yl)amino)-2-hydroxy-1-(1,3-thiazol-4-ylmethyl)propyl)-2′-oxo-1′,2′-dihydro-2,3′-bipyridine-5′-carboxamide] | ≤ 5 µM |
| O=C(N[C@@H](Cc1ccccc1)[C@H](O)CN[C@H]1CC2(CCC2)Oc2ccc(N3CCOCC3)cc21)[C@@H]1CN(C(=O)C2CCOCC2)CCO1 [Example 526, (2S)-N-((1S,2R)-2-hydroxy-3-(((4S)-6-(4-morpholinyl)-3,4-dihydrospiro[chromene-2,1′-cyclobutan]-4-yl)amino)-1-(phenylmethyl)propyl)-4-(tetrahydro-2H-pyran-4-ylcarbonyl)-2-morpholinecarboxamide] | ≤ 5 µM |
| CCc1ccc2c(c1)[C@@H](NC[C@@H](O)[C@H](Cc1ccccc1)NC(=O)[C@@H]1C[C@@H](c3ccccc3)CN(C(=O)c3cccc(C)c3)C1)CC1(CCC1)O2 [Example 527, (3R,5S)-N-((1S,2R)-3-(((4S)-6-ethyl-3,4-dihydrospiro[chromene-2,1′-cyclobutan]-4-yl)amino)-2-hydroxy-1-(phenylmethyl)propyl)-1-((3-methylphenyl)carbonyl)-5-phenyl-3-piperidinecarboxamide] | ≤ 5 µM |
| O=C1CC[C@@H](C(=O)N[C@@H](Cc2ccccc2)[C@H](O)CN[C@H]2CC3(CCC3)Oc3ccc(N4CCOCC4)cc32)O1 [Example 528, (2S)-N-((1S,2R)-2-hydroxy-3-(((4S)-6-(4-morpholinyl)-3,4-dihydrospiro[chromene-2,1′-cyclobutan]-4-yl)amino)-1-(phenylmethyl)propyl)-5-oxotetrahydro-2-furancarboxamide] | ≤ 5 µM |
| O=C1CC[C@H](C(=O)N[C@@H](Cc2ccccc2)[C@H](O)CN[C@H]2CC3(CCC3)Oc3ccc(N4CCOCC4)cc32)O1 [Example 529, (2R)-N-((1S,2R)-2-hydroxy-3-(((4S)-6-(4-morpholinyl)-3,4-dihydrospiro[chromene-2,1′-cyclobutan]-4-yl)amino)-1-(phenylmethyl)propyl)-5-oxotetrahydro-2-furancarboxamide] | ≤ 5 µM |
